Experimental data published in ChEMBL document CHEMBL5465560, “Selectivity Literature for EUbOPEN Chemogenomic Library” (2024).

What was measured:
[1] = target: T1, Tyrosine-protein kinase ZAP-70 (Homo sapiens) (UniProt P43403); conditions: at 10 µM
T1 sequence (whole entry): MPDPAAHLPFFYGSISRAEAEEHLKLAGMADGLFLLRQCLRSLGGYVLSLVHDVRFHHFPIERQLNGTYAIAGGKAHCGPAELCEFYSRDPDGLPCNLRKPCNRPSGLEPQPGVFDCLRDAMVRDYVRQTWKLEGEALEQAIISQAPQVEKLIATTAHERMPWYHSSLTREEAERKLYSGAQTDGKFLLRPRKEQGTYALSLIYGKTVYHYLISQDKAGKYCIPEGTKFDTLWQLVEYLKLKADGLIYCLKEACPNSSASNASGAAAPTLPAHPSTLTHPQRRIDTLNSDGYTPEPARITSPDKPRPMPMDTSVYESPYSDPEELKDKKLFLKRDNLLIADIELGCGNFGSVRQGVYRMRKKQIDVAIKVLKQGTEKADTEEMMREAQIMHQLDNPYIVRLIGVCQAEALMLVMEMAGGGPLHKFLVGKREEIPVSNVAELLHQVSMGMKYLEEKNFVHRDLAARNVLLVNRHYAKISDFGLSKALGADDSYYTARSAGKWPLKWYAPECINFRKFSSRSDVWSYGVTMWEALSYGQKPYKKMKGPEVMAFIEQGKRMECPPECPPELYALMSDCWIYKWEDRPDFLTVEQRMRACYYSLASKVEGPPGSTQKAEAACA

[2] = target: Protein-tyrosine kinase 2-beta (Homo sapiens) (UniProt Q14289); assay: Selectivity interaction (ActivX KiNativ screen (kinase selectivity in THP-1 cell lysates)) EUB0000639a PTK2B; assay type: subcellular; conditions: lysate, at 0.04 µM
Protein-tyrosine kinase 2-beta (Homo sapiens), sequence (Q14289 whole entry, looked up): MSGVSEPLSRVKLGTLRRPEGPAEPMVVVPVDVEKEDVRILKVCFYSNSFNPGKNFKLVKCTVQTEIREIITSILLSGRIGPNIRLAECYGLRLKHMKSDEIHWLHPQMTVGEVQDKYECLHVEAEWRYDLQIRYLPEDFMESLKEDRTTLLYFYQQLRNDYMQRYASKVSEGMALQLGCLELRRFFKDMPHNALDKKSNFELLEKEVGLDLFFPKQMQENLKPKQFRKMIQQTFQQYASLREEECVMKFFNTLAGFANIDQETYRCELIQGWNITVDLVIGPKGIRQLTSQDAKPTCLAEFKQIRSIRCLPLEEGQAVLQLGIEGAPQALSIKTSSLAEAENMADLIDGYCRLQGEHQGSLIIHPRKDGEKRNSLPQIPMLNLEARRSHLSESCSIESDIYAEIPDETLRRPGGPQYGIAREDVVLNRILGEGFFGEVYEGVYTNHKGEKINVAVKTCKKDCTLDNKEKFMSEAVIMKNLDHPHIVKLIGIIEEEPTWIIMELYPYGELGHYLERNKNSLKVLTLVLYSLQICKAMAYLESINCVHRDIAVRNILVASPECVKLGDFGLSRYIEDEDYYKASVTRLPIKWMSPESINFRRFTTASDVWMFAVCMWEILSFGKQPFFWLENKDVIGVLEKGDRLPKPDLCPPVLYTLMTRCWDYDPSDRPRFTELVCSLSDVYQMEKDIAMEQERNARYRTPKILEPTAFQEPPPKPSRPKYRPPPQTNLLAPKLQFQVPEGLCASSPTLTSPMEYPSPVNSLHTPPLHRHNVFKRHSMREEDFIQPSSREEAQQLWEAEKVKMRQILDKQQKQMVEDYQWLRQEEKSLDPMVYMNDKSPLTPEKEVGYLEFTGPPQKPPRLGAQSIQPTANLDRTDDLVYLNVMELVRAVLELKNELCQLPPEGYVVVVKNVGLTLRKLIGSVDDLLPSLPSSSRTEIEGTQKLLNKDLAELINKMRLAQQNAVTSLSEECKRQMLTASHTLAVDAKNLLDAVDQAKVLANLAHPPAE

[3] = target: Ribosomal protein S6 kinase alpha-1 (Homo sapiens, UniProt Q15418); assay: Selectivity interaction (ActivX KiNativ screen (kinase selectivity in THP-1 cell lysates)) EUB0000639a RPS6KA1; assay type: subcellular; conditions: lysate, at 0.04 µM
Ribosomal protein S6 kinase alpha-1, sequence (Q15418 whole entry): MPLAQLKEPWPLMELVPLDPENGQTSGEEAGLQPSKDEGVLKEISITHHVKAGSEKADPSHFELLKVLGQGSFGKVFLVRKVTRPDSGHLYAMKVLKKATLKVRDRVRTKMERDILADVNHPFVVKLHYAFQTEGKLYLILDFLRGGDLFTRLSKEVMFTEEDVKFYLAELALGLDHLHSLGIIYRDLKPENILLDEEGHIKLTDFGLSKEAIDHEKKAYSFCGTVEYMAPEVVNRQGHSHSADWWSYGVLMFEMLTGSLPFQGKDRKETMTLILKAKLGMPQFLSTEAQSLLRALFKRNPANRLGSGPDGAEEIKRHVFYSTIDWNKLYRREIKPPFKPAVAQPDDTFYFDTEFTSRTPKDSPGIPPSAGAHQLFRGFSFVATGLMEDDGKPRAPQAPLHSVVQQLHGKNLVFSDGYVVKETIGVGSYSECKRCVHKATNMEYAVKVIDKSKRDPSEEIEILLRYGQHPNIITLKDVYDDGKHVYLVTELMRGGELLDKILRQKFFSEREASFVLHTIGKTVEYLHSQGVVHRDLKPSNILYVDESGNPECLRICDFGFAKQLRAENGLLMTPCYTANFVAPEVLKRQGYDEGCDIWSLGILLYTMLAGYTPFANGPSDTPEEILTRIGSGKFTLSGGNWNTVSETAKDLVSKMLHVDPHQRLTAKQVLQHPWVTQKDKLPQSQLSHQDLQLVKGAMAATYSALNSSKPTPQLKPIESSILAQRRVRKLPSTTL

[4] = target: T2, Serine/threonine-protein kinase RIO3 (Homo sapiens) (UniProt O14730); assay: Selectivity interaction (KinomeScan (DiscoverX)) EUB0000092b RIOK3; conditions: at 10 µM
T2 sequence (whole entry): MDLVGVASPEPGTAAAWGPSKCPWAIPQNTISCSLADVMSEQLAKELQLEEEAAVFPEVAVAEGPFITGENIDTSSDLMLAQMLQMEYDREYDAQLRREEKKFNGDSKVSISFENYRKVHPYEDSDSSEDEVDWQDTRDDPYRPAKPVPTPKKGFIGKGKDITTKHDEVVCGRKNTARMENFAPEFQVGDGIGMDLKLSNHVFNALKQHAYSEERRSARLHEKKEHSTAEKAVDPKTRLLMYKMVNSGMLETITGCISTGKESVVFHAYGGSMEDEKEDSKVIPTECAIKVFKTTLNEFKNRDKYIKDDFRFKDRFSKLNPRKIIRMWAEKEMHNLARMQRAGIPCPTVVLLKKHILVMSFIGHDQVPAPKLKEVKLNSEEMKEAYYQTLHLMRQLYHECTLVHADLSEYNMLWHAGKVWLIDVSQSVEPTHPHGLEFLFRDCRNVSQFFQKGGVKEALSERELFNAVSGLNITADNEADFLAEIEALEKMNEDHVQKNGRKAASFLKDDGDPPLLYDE

[5] = target: T3, Cytoplasmic tyrosine-protein kinase BMX (Homo sapiens) (UniProt P51813); assay: Selectivity interaction (Kinase screening (Nanosyn)) EUB0000604a BMX
T3 sequence (whole entry): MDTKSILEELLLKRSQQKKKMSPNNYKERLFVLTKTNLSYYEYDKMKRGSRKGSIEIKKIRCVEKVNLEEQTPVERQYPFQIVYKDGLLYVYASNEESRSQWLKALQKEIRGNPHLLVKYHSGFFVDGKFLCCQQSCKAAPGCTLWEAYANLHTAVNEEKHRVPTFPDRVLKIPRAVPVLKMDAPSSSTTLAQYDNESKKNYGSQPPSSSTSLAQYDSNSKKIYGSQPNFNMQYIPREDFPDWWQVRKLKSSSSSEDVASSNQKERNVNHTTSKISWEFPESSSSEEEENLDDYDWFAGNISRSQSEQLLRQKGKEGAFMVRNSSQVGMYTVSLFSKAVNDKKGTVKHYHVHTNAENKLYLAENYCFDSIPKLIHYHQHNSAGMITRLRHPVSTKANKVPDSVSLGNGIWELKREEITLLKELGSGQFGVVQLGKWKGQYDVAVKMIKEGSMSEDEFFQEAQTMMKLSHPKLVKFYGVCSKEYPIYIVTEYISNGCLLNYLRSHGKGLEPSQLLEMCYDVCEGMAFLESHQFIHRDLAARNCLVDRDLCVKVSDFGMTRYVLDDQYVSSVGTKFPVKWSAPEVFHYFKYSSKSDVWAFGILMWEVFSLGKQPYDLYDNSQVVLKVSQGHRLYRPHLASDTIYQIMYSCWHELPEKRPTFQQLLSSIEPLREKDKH

[6] = target: T4, Dual specificity mitogen-activated protein kinase kinase 7 (Homo sapiens) (UniProt O14733); assay: Selectivity interaction (Kinase screening (Nanosyn)) EUB0000604a MAP2K7
T4 sequence (whole entry): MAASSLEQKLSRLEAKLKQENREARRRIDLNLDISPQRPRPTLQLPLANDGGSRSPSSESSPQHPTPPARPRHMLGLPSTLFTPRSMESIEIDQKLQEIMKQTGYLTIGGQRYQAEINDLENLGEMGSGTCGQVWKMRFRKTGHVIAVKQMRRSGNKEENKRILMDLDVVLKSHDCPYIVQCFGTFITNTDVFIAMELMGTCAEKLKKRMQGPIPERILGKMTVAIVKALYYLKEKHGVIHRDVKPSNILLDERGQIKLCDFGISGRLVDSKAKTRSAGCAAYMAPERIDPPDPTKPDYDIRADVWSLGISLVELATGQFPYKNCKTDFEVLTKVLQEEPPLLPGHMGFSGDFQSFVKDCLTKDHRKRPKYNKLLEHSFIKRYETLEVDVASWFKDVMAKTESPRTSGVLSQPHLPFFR

SMILES: CCN(CC)CCCCNc1ncc2cc(-c3cc(OC)cc(OC)c3)c(NC(=O)NC(C)(C)C)nc2n1
- % of control [1]: 100%

SMILES: CC[C@@H]1[C@H](F)C(=O)N[C@@H]1COc1nccc2cc(C(N)=O)c(OC)cc12 [ZIMLOVISERTIB]
- % of inhibition [2]: 6.6%
- % of inhibition [3]: -6.2%

SMILES: CCC(=O)N1CCN(c2ccc(-n3c(=O)ccc4cnc5ccc(-c6cnc7ccccc7c6)cc5c43)cc2C(F)(F)F)CC1
- % of control [4]: 90%

SMILES: Cc1cnc(Nc2ccc(F)cc2Cl)nc1-c1c[nH]c(C(=O)N[C@H](CO)c2cccc(Cl)c2)c1
- % of inhibition [5]: 3%
- % of inhibition [6]: 6%
